Patent US20080221115A1, “Use of long-chain alcohol derivatives for the treatment of alopecia areata” (priority 2007, published 2008)

Key:
[1] = tested on: alopecia greata in C3H/HeJ mice; conditions: for effective in treating the alopecia greata in C3H/HeJ mice: conclusion in words from Example 1; for Average score: hair amount and hair growth in biopsies from mustache, face, head, neck, back, stomach graded 1 (no hair) to 5 (full growth), averaged per group, day 93, negative control (PBS) 2.48; for Average score / Overall score: 25 mg/ml in PBS, topical; for Overall score: overall appearance graded on a scale of 1 (50% of mouse hairless) to 5 (full hair), group mean, 40 μl per cm^2 lesion, day 93 from the beginning of the treatment, negative control (PBS) 2.7
Experimental: The young mice will develop the disease subsequent to grafting.
Lesional grafts from old C3H/HeJ mice were grafted onto young C3H/HeJ mice. On day 30-40 post-graft the mice were randomized into groups with approximately the same degree of alopecia greata pathology.
Group 1: negative control, phosphate buffered saline (PBS).
Treatment was initiated on the day of randomization into groups. Mice were treated by providing 40 μl of solution per cm^2 lesion. The solution was evenly spread and was allowed to soak into the skin. Mice were observed twice weekly and the size of patches was measured and documented.
Treatment solutions were prepared freshly each day.
At the end of the study, skin biopsies were evaluated in a blinded manner. The hair amount and hair growth from biopsies from mice mustache, face, head, neck, back, and stomach were graded from 1 to 5. A rating of 1 represented no hair, and a rating of 5 represented full growth. These scores were calculated for each mouse and averaged, and the average for each group is shown below as “average score.”
In addition, the mice were graded based on their overall appearance on a scale of 1 to 5 for “overall score.”
Score 1=50% of mouse hairless.
Score 2=20-40% of mouse hairless.
Score 3=hairless patch covering up to 20% of mouse.
Score 4=thin hair, or local small hairless patch.
There were 7 mice in each of the test compound groups and 5 mice in the negative control group.
The scoring occurred on day 93 from the beginning of the treatment.

[2] = tested on: delayed-type hypersensitivity model in mice; conditions: disclosed in WO 2004/032824; cited from earlier work
EAE model in rats = conditions: disclosed in WO 2004/032824; cited from earlier work

## CCCCCCCC/C=C\CCCCCCCCOC(=O)C(N)c1ccccc1.Cl (stereo not drawn) [compound 1, amino-phenyl-acetic acid octadec-(Z)-9-enyl ester HCl]
[1]
  effective in treating the alopecia greata in C3H/HeJ mice: effective
  Average score: 3.11
  Overall score: 3.5
[2]
  results in a delayed-type hypersensitivity model in mice: positive results

## CCCCCCCC/C=C\CCCCCCCCOC(=O)CN1CCNCC1.O=C(O)C(O)C(O)C(=O)O [compound 2]
[1]
  effective in treating the alopecia greata in C3H/HeJ mice: effective
  Average score: 2.91
  Overall score: 3.5
[2]
  results in a delayed-type hypersensitivity model in mice: positive results
EAE model in rats
  results in an EAE model in rats: positive results
